Patent publication US20230083015A1, “SMALL MOLECULE DEGRADERS OF STAT3” (THE REGENTS OF THE UNIVERSITY OF MICHIGAN, priority 2019, published 2023)

Experiments:
Format in all cases: cell-based
STAT3 [1] = molecular target: T1, STAT3 (Homo sapiens, UniProt P40763); assay: Western blotting of total STAT1, STAT2, STAT3, STAT4, STAT5 and STAT6 protein in SU-DHL-1 and SUP-M2 cells; parameters: endogenous in cells
Procedure: FIG. 11 is an image showing the Western blotting analysis of total STAT1, STAT2, STAT3, STAT4, STAT5, and STAT6 protein in SU-DHL-1 and SUP-M2 cells treated with Cpd. Nos. 36 and 37. Cpd.
(§1) In vitro cultured cells or xenograft tumors were lysed 1× Cell Lysis Buffer (Cell Signaling Technology, #9803), resolved by SDS-PAGE NuPAGE gel (Thermo Fisher Scientific), and transferred to a PVDF membrane (Bio Rad). For chemiluminescence immunoblotting, membranes were blocked for 1 h using 5% Blotting-Grade Blocker (#1706404, Bio Rad) in 1× Tris-buffered saline with Tween 20 (TBST, Pierce). Antibodies used were: rabbit mAbs for STAT3 (Cell Signaling Technology, #4368, #12640) and p-STAT3 (Y705) (Cell Signaling Technology, #9245, #52075). HRP conjugated goat anti-rabbit IgG (H+L) (#A27036) secondary antibodies was from Thermo Fisher Scientific. GAPDH (Santa Cruz Technology, sc-47724HRP) and actin (Santa Cruz Technology, sc-8432HRP, sc-47778HRP) were loading controls. For fluorescent immunoblotting, membranes were blocked using Odyssey TBS Blocker Buffer (LI-COR). IRDye 680RD and 800CW Dye-labeled secondary antibodies (LI-COR) were used. The washed membranes were scanned using Odyssey CLx imager (LI-COR). The intensity of Western blot signaling was quantitated using the Odyssey software.

[2] = test system: ALCL and AML cell lines expressing high levels of STAT3; assay: Cell growth inhibition in ALCL and AML cell lines
From the text: FIG. 12 is a table showing that Cpd.

STAT3 [3] = molecular target: T1, STAT3; assay: Western blotting of total STAT1, STAT2, STAT3, STAT5 and STAT6 protein in Molm-16 cells; parameters: endogenous in cells; host or cells: MOLM-16
Procedure: FIG. 10 is an image showing the Western blotting analysis of total STAT1, STAT2, STAT3, STAT5, and STAT6 protein in Molm-16 cells treated with Cpd. No. 36. Cpd.
as §1

mutated STAT3 proteins = molecular target: T2, mutated STAT3 proteins (Homo sapiens, UniProt P40763, Y705F); assay: Western blotting of total STAT3 and p-STAT3 (Y705) in DLD-1 and DLD-1 (Y705F) cells
T2 construct: endogenous in cells; host or cells: DLD-1 (Y705F)
T2 sequence (P40763 2-770 Y705F): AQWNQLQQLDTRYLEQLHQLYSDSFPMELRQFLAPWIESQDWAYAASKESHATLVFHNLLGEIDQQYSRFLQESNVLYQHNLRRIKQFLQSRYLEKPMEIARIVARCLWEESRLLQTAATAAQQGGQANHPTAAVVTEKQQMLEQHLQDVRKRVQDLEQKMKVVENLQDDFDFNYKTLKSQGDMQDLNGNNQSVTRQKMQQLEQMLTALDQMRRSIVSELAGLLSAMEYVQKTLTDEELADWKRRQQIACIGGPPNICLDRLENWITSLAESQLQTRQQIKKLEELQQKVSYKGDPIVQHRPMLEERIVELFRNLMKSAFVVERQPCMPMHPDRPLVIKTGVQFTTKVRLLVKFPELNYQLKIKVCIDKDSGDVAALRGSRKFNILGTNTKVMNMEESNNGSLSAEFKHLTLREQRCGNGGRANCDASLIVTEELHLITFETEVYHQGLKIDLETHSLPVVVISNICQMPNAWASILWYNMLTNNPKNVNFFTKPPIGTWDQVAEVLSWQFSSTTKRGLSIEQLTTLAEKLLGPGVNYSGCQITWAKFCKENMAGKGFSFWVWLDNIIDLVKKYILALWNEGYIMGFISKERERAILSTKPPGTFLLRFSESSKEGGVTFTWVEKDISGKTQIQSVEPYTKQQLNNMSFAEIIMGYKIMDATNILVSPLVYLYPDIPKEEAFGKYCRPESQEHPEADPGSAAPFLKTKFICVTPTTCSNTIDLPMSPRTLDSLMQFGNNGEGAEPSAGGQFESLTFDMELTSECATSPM
Procedure: FIG. 9 is an image showing the Western blotting analysis of total STAT3 protein and phosphorylated STAT3 (Y705) in DLD-1 and DLD-1 (Y705F) cells treated with Cpd.
as §1

T1 sequence (P40763 whole entry): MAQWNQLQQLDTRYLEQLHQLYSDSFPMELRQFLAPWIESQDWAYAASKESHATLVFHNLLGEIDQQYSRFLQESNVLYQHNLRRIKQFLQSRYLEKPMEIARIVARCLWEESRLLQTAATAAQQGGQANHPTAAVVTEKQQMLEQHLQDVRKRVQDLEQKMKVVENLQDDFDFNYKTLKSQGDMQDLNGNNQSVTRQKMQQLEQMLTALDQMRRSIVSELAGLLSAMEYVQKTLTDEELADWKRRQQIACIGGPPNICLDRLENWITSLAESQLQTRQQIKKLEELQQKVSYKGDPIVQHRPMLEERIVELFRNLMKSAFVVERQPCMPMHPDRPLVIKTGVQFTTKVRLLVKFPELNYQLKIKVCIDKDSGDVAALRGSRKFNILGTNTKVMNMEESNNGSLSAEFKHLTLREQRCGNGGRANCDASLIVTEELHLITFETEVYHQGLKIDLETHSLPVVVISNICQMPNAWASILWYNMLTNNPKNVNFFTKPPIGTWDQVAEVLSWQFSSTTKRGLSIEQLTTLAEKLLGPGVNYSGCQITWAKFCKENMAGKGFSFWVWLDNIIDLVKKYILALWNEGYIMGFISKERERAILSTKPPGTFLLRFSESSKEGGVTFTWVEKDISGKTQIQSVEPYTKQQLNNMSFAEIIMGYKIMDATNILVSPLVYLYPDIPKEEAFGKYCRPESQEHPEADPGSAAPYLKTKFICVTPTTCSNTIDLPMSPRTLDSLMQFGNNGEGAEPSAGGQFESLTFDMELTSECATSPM

With `NC(=O)CC[C@H](NC(=O)[C@@H]1CC[C@@H]2CCN(C(=O)CCCCCC#Cc3cccc4c3CN(C3CCC(=O)NC3=O)C4=O)C[C@H](NC(=O)c3cc4cc(C(F)(F)P(=O)(O)O)ccc4[nH]3)C(=O)N21)C(=O)NC(c1ccccc1)c1ccccc1` (stereo partly drawn) [Cpd. No. 36, ((2-(((5S,8S,10aR)-8-(((S)-5-amino-1-(benzhydrylamino)-1,5-dioxopentan-2-yl)carbamoyl)-3-(8-(2-(2,6-dioxopiperidin-3-yl)-1-oxoisoindolin-4-yl)oct-7-ynoyl)-6-oxodecahydropyrrolo[1,2-a][1,5]diazocin-5-yl)carbamoyl)-1H-indol-5-yl)difluoromethyl)phosphonic Acid] the “selectivity of STAT3 degradation over other STAT members (Western blot)” value (STAT3 [1]) was “specifically degrades STAT3 protein over other STAT members”, the cell growth inhibition [2] was “inhibits cell growth” and the “selectivity of STAT3 degradation over other STAT members (Western blot)” value (STAT3 [3]) was “specifically degrades STAT3 protein over other STAT members”. For the same compound, the “degradation of mutated STAT3 protein (Western blot)” value (mutated STAT3 proteins) was “degrades mutated STAT3 proteins”.
